# Tests used:
# human PPAR α [1] = target: T1, human PPAR α (Homo sapiens, UniProt Q07869); test: Exogeneous PPAR α agonist assay (GAL4 DNA binding domain/PPAR α ligand binding domain, luciferase) in HepG2 cells; type: cell-based; details: 25 μM compound, 48 hours, luciferase activity increase relative to the control
# T1 construct: expressed in transfected cells; host or cells: HepG2 (ATCC HB-8065) or 293T cells (ATCC CRL-1573)
# T1 sequence (Q07869 239-466 limits assumed): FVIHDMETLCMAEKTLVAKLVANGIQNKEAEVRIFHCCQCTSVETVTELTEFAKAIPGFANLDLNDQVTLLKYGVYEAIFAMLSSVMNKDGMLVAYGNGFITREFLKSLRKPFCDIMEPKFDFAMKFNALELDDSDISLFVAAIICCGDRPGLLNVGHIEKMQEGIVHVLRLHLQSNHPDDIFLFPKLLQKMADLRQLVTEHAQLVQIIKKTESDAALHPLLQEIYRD
# Method: Step 1) Exogeneous PPAR α Agonist Assay
# Cross-activation assay of the compounds of Examples 1 to 134 against human PPAR α was carried out using a DNA construct of PPAR α including its ligand binding domain and GAL4 DNA binding domain (Sher et al., Biochemistry 32, 5598-5604, 1993) to analyze whether any of the compounds binds to the ligand binding domain of PPAR α expressed by the construct to affect the PPAR α activity. When the GAL4 DNA binding domainm which is fused with PPAR α ligand binding domain, binds to UAS (upstream activation sequence) of firefly-luciferase, the luciferase is expressed. Therefore, the effect of each of the compounds of Examples on PPAR α activation can be evaluated by analyzing the activation of luciferase.
# Specifically, 2×10^4 of HepG2 (ATCC HB-8065) or 293T cells (ATCC CRL-1573) were aliquotted into each well of a 96-well plate and cultured for overnight at 37° C. in a CO2 incubator (culture condition: DMEM, 10% FBS and 1% antibiotics).
# The transformation of PPAR α DNA was traced as follows. First, a mixture of the following ingredients in amounts per well; Solution A (Promega) containing 50 ng of full length human PPAR α DNA, 50 ng of firefly-luciferase construct, 5 ng of Renilla-luciferase construct, 1.0 μl of PLUS™ reagent, and 8.3 μl of a serum-free medium containing no antibiotics; was prepared and kept at room temperature for 15 min. Solution B, which contained 0.5 μl of Lipofectamine™ reagent and 9.5 μl of serum-free medium without antibiotics per well, and Solution C, which contained 50 μl of serum-free medium per well), were prepared. Solutions A, B and C were mixed together to prepare lipofectamin-DNA complex, and the mixture was kept at room temperature for 15 min. Single layer of cells on each well of a 96-well plate were washed with serum-free DMEM, 70 μl of lipofectamine-DNA complex prepared above was added thereto, the plate was incubated at 37° C. in a 5% CO2 incubator for 3 hours to transform the cells, and […] of a diluted solution of each of the compounds of Examples 1 to 134 per well was added to each well to a final concentration 25 μM, and incubated at 37° C. in a CO2 incubator for 48 hours. Then, the medium was removed, 50 μl of passive lysis buffer (Promega) was added thereto, and the plate was shook at room temperature for 20 min to lysis cells. 40 μl of Luciferase Assay reagent of Dual Luciferase Kit […] per 20 μl of cell lysis buffer was added to the plate, followed by reacting at 20° C. for 8 seconds, and 40 μl of Stop & Glo reagent (Promega) as a stop solution was added thereto to quench the reaction. The luminescence intensities of F-luciferase and R-luciferase were measured with MicroLumat Plus (Berthord Technology).
# human PPAR α [2] = target: T1, human PPAR α; test: Exogeneous PPAR α agonist assay (GAL4 DNA binding domain/PPAR α ligand binding domain, luciferase) in 293T cells; type: cell-based; parameters: scale not given here; details: 25 μM compound, 48 hours, luciferase activity increase relative to the control
# Outline: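 HepG2 or 293T cells (2×10^4/well) lipofectamine-transfected 3 hours with PPAR α, UAS firefly-luciferase and Renilla-luciferase constructs. Compounds then added at 25 μM final and incubated 48 hours at 37° C. PPAR α activation measured as dual firefly/Renilla luciferase luminescence.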
Activity at 25 μM Step 1 HepG2 cell (human PPAR α [1]),Activity at 25 μM Step 1 293T cell (human PPAR α [2]),Compound
44,4,"Cc1oc(-c2ccc(C(F)(F)F)cc2)nc1COc1cccc(CN(CC(=O)O)S(=O)(=O)N2CCCCC2)c1 [Example 11, [N-(piperidinyl)sulfonyl-N-[3-[[2-(4-trifluoromethylphenyl)-5-methyloxazol-4-yl]methoxy]benzyl]amino]acetic acid]"
36,4,"Cc1ccc(-c2nc(COc3cccc(CN(CCC(=O)O)S(=O)(=O)N(C)C)c3)c(C)o2)cc1 [Example 130, 3-[N—(N,N-dimethylamino)sulfonyl-N-[3-[(5-methyl-2-p-tolyloxazol-4-yl)methoxy]benzyl]amino]propionic acid]"
40,5,"CCN(c1cccc(C)c1)S(=O)(=O)N(CC(=O)O)Cc1cccc(OCc2nc(-c3ccc(C(F)(F)F)cc3)oc2C)c1 [Example 21, [N—(N-ethyl-N-m-tolylamino)sulfonyl-N-[3-[[2-(4-trifluoromethylphenyl)-5-methyloxazol-4-yl]methoxy]benzyl]amino]acetic acid]"
30,5,"CCN(c1cccc(C)c1)S(=O)(=O)N(CC(=O)O)Cc1cccc(OCCc2nc(-c3ccc(C(F)(F)F)cc3)oc2C)c1 [Example 80, [N—(N-ethyl-N-m-tolylamino)sulfonyl-N-[3-[2-[2-(4-trifluoromethylphenyl)-5-methyloxazol-4-yl]ethoxy]benzyl]amino]acetic acid]"
30,2,"Cc1ccc(-c2nc(CCOc3cccc(CN(CC(=O)O)S(=O)(=O)N(C)C(C)C)c3)c(C)o2)cc1 [Example 64, [N—(N-isopropyl-N-methylamino)sulfonyl-N-[3-[2-[2-(4-methylphenyl)-5-methyloxazol-4-yl]ethoxy]benzyl]amino]acetic acid]"
25,5,"CCN(c1cccc(C)c1)S(=O)(=O)N(CC(=O)O)Cc1ccc(OCCc2nc(-c3ccc(C)cc3)oc2C)cc1 [Example 111, [N—(N-ethyl-N-m-tolylamino)sulfonyl-N-[4-[2-[2-(4-methylphenyl)-5-methyloxazol-4-yl]ethoxy]benzyl]amino]acetic acid]"
32,5,"CN(C)S(=O)(=O)N(CC(=O)O)Cc1ccc(OCCc2coc(-c3ccccc3)n2)cc1 [Example 132, [N—(N,N-dimethylamino)sulfonyl-N-[4-[(2-phenyloxazol-4-yl)ethoxy]benzyl]amino]acetic acid]"
26,2,"Cc1oc(-c2ccc(C(F)(F)F)cc2)nc1CCOc1cccc(CN(CC(=O)O)S(=O)(=O)N(C)c2cccc(F)c2)c1 [Example 82, [N—[N-(3-fluorophenyl)-N-methylamino]sulfonyl-N-[3-[2-[2-(4-trifluoromethylphenyl)-5-methyloxazol-4-yl]ethoxy]benzyl]amino]acetic acid]"
62,4,"Cc1ccc(-c2nc(COc3cccc(C(C)N(CC(=O)O)S(=O)(=O)N(C)C)c3)c(C)o2)cc1 (stereo not shown) [Example 126, [N—(N,N-dimethylamino)sulfonyl-N-[1-[[3-(5-methyl-2-p-tolyloxazol-4-yl)methoxy]phenyl]ethyl]amino]acetic acid]"
33,3,"CCN(CC)S(=O)(=O)N(CC(=O)O)Cc1cccc(OCCc2nc(-c3ccc(C)cc3)oc2C)c1 [Example 63, [N—(N,N-diethylamino)sulfonyl-N-[3-[2-[2-(4-methylphenyl)-5-methyloxazol-4-yl]ethoxy]benzyl]amino]acetic acid]"
43,3,"Cc1ccc(-c2nc(COc3cccc(C(C)N(CC(=O)O)S(=O)(=O)N(C)C(C)C)c3)c(C)o2)cc1 (stereo not shown) [Example 129, [N—(N-isopropyl-N-methylamino)sulfonyl-N-[1-[[3-(5-methyl-2-p-tolyloxazol-4-yl)methoxy]phenyl]ethyl]amino]acetic acid]"
50,2,"CCN(CC)S(=O)(=O)N(CC(=O)O)Cc1cccc(OCCc2nc(-c3ccc(C(F)(F)F)cc3)oc2C)c1 [Example 67, [N—(N,N-diethylamino)sulfonyl-N-[3-[2-[2-(4-trifluoromethylphenyl)-5-methyloxazol-4-yl]ethoxy]benzyl]amino]acetic acid]"
25,2,"CCN(CC)S(=O)(=O)N(CC(=O)O)C(C)c1cccc(OCc2nc(-c3ccc(C)cc3)oc2C)c1 (stereo not shown) [Example 128, [N—(N,N-diethylamino)sulfonyl-N-[1-[[3-(5-methyl-2-p-tolyloxazol-4-yl)methoxy]phenyl]ethyl]amino]acetic acid]"
44,2,"Cc1oc(-c2ccc(C(F)(F)F)cc2)nc1CCOc1cccc(CN(CC(=O)O)S(=O)(=O)N2CCCCC2)c1 [Example 71, [N-(piperidinyl)sulfonyl-N-[3-[2-[2-(4-trifluoromethylphenyl)-5-methyloxazol-4-yl]ethoxy]benzyl]amino]acetic acid]"
46,4,"Cc1ccc(-c2nc(CCOc3ccc(CN(CC(=O)O)S(=O)(=O)N(C)C(C)C)cc3)c(C)o2)cc1 [Example 102, [N—(N-isopropyl-N-methylamino)sulfonyl-N-[4-[2-[2-(4-methylphenyl)-5-methyloxazol-4-yl]ethoxy]benzyl]amino]acetic acid]"
34,5,"Cc1oc(-c2ccc(C(F)(F)F)cc2)nc1COc1cccc(CN(CC(=O)O)S(=O)(=O)N(C)c2cccc(F)c2)c1 [Example 23, [N—[N-(3-fluorophenyl)-N-methylamino]sulfonyl-N-[3-[[2-(4-trifluoromethylphenyl)-5-methyloxazol-4-yl]methoxy]benzyl]amino]acetic acid]"
34,3,"C#CCN(C)S(=O)(=O)N(CC(=O)O)Cc1cccc(OCCc2nc(-c3ccc(C(F)(F)F)cc3)oc2C)c1 [Example 70, [N—(N-methyl-N-propargylamino)sulfonyl-N-[3-[2-[2-(4-trifluoromethylphenyl)-5-methyloxazol-4-yl]ethoxy]benzyl]amino]acetic acid]"
22,3,"Cc1ccc(-c2nc(COc3cccc(CN([C@H](C(=O)O)C(C)C)S(=O)(=O)N(C)C)c3)c(C)o2)cc1 [Example 125, (S)-3-methyl-2-[N—(N,N-dimethylamino)sulfonyl-N-[3-[(5-methyl-2-p-tolyloxazol-4-yl)methoxy]benzyl]amino]butyric acid]"
40,2,"C=CCN(C)S(=O)(=O)N(CC(=O)O)Cc1cccc(OCCc2nc(-c3ccc(C(F)(F)F)cc3)oc2C)c1 [Example 69, [N—(N-allyl-N-methylamino)sulfonyl-N-[3-[2-[2-(4-trifluoromethylphenyl)-5-methyloxazol-4-yl]ethoxy]benzyl]amino]acetic acid]"
41,5,"CN(C)S(=O)(=O)N(CC(=O)O)Cc1cccc(OCCc2coc(-c3ccccc3)n2)c1 [Example 131, [N—(N,N-dimethylarino)sulfonyl-N-[3-[(2-phenyloxazol-4-yl)ethoxy]benzyl]amino]acetic acid]"

# Reference: patent US20070254882A1, “Sulfamide Derivatives and Pharmaceutical Composition for Upregulation of Lipid Metabolism Comprising Same” (CRYSTAL GENOMICS, INC., priority 2004, published 2007)
